Data as given in the supplement of paper PMC4932681.

What was measured:
MCF-7 Tam1 [1] = assay: drug sensitivity score (DSS) (DSS (dimensionless)); higher = more sensitive; extreme values may be limits of the assay; details: 4-OH-tamoxifen in medium 1 µM; 72 h
Procedure: (§1)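 FIMM FO2B library drugs were tested at 5 concentrations (10,000-fold range) for 72 h, with CellTiter-Glo viability normalised to DMSO and benzethonium chloride controls. The Drug Sensitivity Score (DSS) is computed from the fitted logistic dose-response curve (area-based; 0 = inactive). Resistant lines and the 'in 1µM tamoxifen' arms were tested in 1 µM 4-OH-tamoxifen.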

BT-474 [2] = assay: as above; details: 72 h
Procedure: as §1

BT-474 Tam2 [3] = assay: as above; details: 4-OH-tamoxifen in medium 1 µM; 72 h
Procedure: as §1

ZR-75-1 Tam1 [4] = assay: as above; details: 4-OH-tamoxifen in medium 1 µM; 72 h
Procedure: as §1

T-47D Tam2 = assay: as above; details: 4-OH-tamoxifen in medium 1 µM; 72 h
Procedure: as §1

T-47D [5] = assay: as above; details: 72 h
Procedure: as §1

T-47D Tam1 [6] = assay: as above; details: 4-OH-tamoxifen in medium 1 µM; 72 h
Procedure: as §1

MCF-7 [7] = assay: as above; details: 72 h
Procedure: as §1

ZR-75-1 Tam2 [8] = assay: as above; details: 4-OH-tamoxifen in medium 1 µM; 72 h
Procedure: as §1

BT-474 Tam1 [9] = assay: as above; details: 4-OH-tamoxifen in medium 1 µM; 72 h
Procedure: as §1

ZR-75-1 [10] = assay: as above; details: 72 h
Procedure: as §1

BT-474 [11] = assay: relative IC50 (midpoint of fitted logistic curve, plateau may be below 50% inhibition; CellTiter-Glo viability); higher = less potent; details: 72 h
Procedure: (§2)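 FIMM FO2B library drugs were plated at 5 concentrations spanning a 10,000-fold range in 384-well plates. Cells were incubated for 72 h at 37 °C and viability was read by CellTiter-Glo, normalised to DMSO (0% inhibition) and 100 µM benzethonium chloride (100% inhibition). IC50 values come from logistic dose-response fits (Breeze pipeline). Tamoxifen-resistant lines and the 'in 1µM tamoxifen' parental arms were tested in medium with 1 µM 4-OH-tamoxifen.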

ZR-75-1 Tam1 [12] = assay: as above; details: 4-OH-tamoxifen in medium 1 µM; 72 h
Procedure: as §2

T-47D [13] = assay: as above; details: 72 h
Procedure: as §2

T-47D Tam1 [14] = assay: as above; details: 4-OH-tamoxifen in medium 1 µM; 72 h
Procedure: as §2

ZR-75-1 Tam2 [15] = assay: as above; details: 4-OH-tamoxifen in medium 1 µM; 72 h
Procedure: as §2

ZR-75-1 [16] = assay: as above; details: 72 h
Procedure: as §2

MCF-7 Tam1 [17] = assay: as above; details: 4-OH-tamoxifen in medium 1 µM; 72 h
Procedure: as §2

BT-474 Tam2 [18] = assay: as above; details: 4-OH-tamoxifen in medium 1 µM; 72 h
Procedure: as §2

MCF-7 [19] = assay: as above; details: 72 h
Procedure: as §2

BT-474 Tam1 [20] = assay: as above; details: 4-OH-tamoxifen in medium 1 µM; 72 h
Procedure: as §2

Structure (SMILES): CO[C@@H]1[C@H](N(C)C(=O)c2ccccc2)C[C@H]2O[C@]1(C)n1c3ccccc3c3c4c(c5c6ccccc6n2c5c31)C(=O)NC4 [Midostaurin (PKC412)]
- drug sensitivity score (MCF-7 Tam1 [1]): 1.28
- drug sensitivity score (BT-474 [2]; 4-OH-tamoxifen in medium 0 µM): 3.45
- drug sensitivity score (BT-474 [2]; 4-OH-tamoxifen in medium 1 µM): 7.09
- drug sensitivity score (BT-474 Tam2 [3]): 1.88
- drug sensitivity score (ZR-75-1 Tam1 [4]): 0
- drug sensitivity score (T-47D Tam2): 1.85
- drug sensitivity score (T-47D [5]; 4-OH-tamoxifen in medium 0 µM): 1.37
- drug sensitivity score (T-47D [5]; 4-OH-tamoxifen in medium 1 µM): 3.14
- drug sensitivity score (T-47D Tam1 [6]): 3.03
- drug sensitivity score (MCF-7 [7]; 4-OH-tamoxifen in medium 0 µM): 0.329
- drug sensitivity score (MCF-7 [7]; 4-OH-tamoxifen in medium 1 µM): 0.519
- drug sensitivity score (ZR-75-1 Tam2 [8]): 0
- drug sensitivity score (BT-474 Tam1 [9]): 0.189
- drug sensitivity score (ZR-75-1 [10]; 4-OH-tamoxifen in medium 0 µM): 0
- drug sensitivity score (ZR-75-1 [10]; 4-OH-tamoxifen in medium 1 µM): 0
- relative IC50 (BT-474 [11]; 4-OH-tamoxifen in medium 1 µM): 0.305 µM
- relative IC50 (ZR-75-1 Tam1 [12]): > 10 µM
- relative IC50 (T-47D [13]; 4-OH-tamoxifen in medium 1 µM): 1.81 µM
- relative IC50 (T-47D Tam1 [14]): 1.49 µM
- relative IC50 (ZR-75-1 Tam2 [15]): > 10 µM
- relative IC50 (ZR-75-1 [16]; 4-OH-tamoxifen in medium 0 µM): > 10 µM
- relative IC50 (ZR-75-1 [16]; 4-OH-tamoxifen in medium 1 µM): > 10 µM

Structure (SMILES): CC[C@@H]1C(=O)N(C)c2cnc(Nc3ccc(C(=O)N[C@H]4CC[C@H](N5CCN(CC6CC6)CC5)CC4)cc3OC)nc2N1C(C)C [Volasertib (BI 6727)]
- drug sensitivity score (MCF-7 Tam1 [1]): 0
- drug sensitivity score (BT-474 [2]; 4-OH-tamoxifen in medium 0 µM): 1.47
- drug sensitivity score (BT-474 [2]; 4-OH-tamoxifen in medium 1 µM): 7.11
- drug sensitivity score (BT-474 Tam2 [3]): 0
- drug sensitivity score (ZR-75-1 Tam1 [4]): 1.07
- drug sensitivity score (T-47D Tam2): 2.13
- drug sensitivity score (T-47D [5]; 4-OH-tamoxifen in medium 0 µM): 1.16
- drug sensitivity score (T-47D [5]; 4-OH-tamoxifen in medium 1 µM): 2.85
- drug sensitivity score (T-47D Tam1 [6]): 2.19
- drug sensitivity score (MCF-7 [7]; 4-OH-tamoxifen in medium 0 µM): 2.8
- drug sensitivity score (MCF-7 [7]; 4-OH-tamoxifen in medium 1 µM): 7
- drug sensitivity score (ZR-75-1 Tam2 [8]): 0.29
- drug sensitivity score (BT-474 Tam1 [9]): 0.654
- drug sensitivity score (ZR-75-1 [10]; 4-OH-tamoxifen in medium 0 µM): 0
- drug sensitivity score (ZR-75-1 [10]; 4-OH-tamoxifen in medium 1 µM): 0.706
- relative IC50 (MCF-7 Tam1 [17]): > 1 µM
- relative IC50 (BT-474 Tam2 [18]): > 1 µM
- relative IC50 (T-47D [13]; 4-OH-tamoxifen in medium 0 µM): 0.361 µM
- relative IC50 (MCF-7 [19]; 4-OH-tamoxifen in medium 1 µM): 0.0125 µM
- relative IC50 (ZR-75-1 [16]; 4-OH-tamoxifen in medium 0 µM): > 1 µM

Structure (SMILES): Nc1ccccc1NC(=O)c1ccc(CNC(=O)OCc2cccnc2)cc1 [Entinostat]
- drug sensitivity score (MCF-7 Tam1 [1]): 0
- drug sensitivity score (BT-474 [2]; 4-OH-tamoxifen in medium 0 µM): 3.08
- drug sensitivity score (BT-474 [2]; 4-OH-tamoxifen in medium 1 µM): 4.39
- drug sensitivity score (BT-474 Tam2 [3]): 3.18
- drug sensitivity score (ZR-75-1 Tam1 [4]): 1.06
- drug sensitivity score (T-47D Tam2): 0.0349
- drug sensitivity score (T-47D [5]; 4-OH-tamoxifen in medium 0 µM): 2.94
- drug sensitivity score (T-47D [5]; 4-OH-tamoxifen in medium 1 µM): 1.33
- drug sensitivity score (T-47D Tam1 [6]): 5.11
- drug sensitivity score (MCF-7 [7]; 4-OH-tamoxifen in medium 0 µM): 3.59
- drug sensitivity score (MCF-7 [7]; 4-OH-tamoxifen in medium 1 µM): 1.94
- drug sensitivity score (ZR-75-1 Tam2 [8]): 0.992
- drug sensitivity score (BT-474 Tam1 [9]): 3.73
- drug sensitivity score (ZR-75-1 [10]; 4-OH-tamoxifen in medium 0 µM): 1.19
- drug sensitivity score (ZR-75-1 [10]; 4-OH-tamoxifen in medium 1 µM): 0
- relative IC50 (BT-474 [11]; 4-OH-tamoxifen in medium 0 µM): 3.44 µM
- relative IC50 (BT-474 [11]; 4-OH-tamoxifen in medium 1 µM): 3.39 µM
- relative IC50 (BT-474 Tam2 [18]): 2.81 µM
- relative IC50 (T-47D [13]; 4-OH-tamoxifen in medium 0 µM): 3.89 µM
- relative IC50 (T-47D [13]; 4-OH-tamoxifen in medium 1 µM): 3.99 µM
- relative IC50 (T-47D Tam1 [14]): 1.82 µM
- relative IC50 (MCF-7 [19]; 4-OH-tamoxifen in medium 0 µM): 2.99 µM
- relative IC50 (MCF-7 [19]; 4-OH-tamoxifen in medium 1 µM): 3.28 µM
- relative IC50 (BT-474 Tam1 [20]): 3.73 µM
- relative IC50 (ZR-75-1 [16]; 4-OH-tamoxifen in medium 0 µM): 3.96 µM

Structure (SMILES): COc1cc(OC2CCN(C)CC2)ccc1Nc1ncc2c(n1)n(C1CCCC1)c(=O)n2C [AZ 3146]
- drug sensitivity score (MCF-7 Tam1 [1]): 0.007
- drug sensitivity score (BT-474 [2]; 4-OH-tamoxifen in medium 0 µM): 0
- drug sensitivity score (BT-474 [2]; 4-OH-tamoxifen in medium 1 µM): 7.15
- drug sensitivity score (BT-474 Tam2 [3]): 0.781
- drug sensitivity score (ZR-75-1 Tam1 [4]): 0.233
- drug sensitivity score (T-47D Tam2): 0.886
- drug sensitivity score (T-47D [5]; 4-OH-tamoxifen in medium 0 µM): 1.1
- drug sensitivity score (T-47D [5]; 4-OH-tamoxifen in medium 1 µM): 0.111
- drug sensitivity score (T-47D Tam1 [6]): 0
- drug sensitivity score (MCF-7 [7]; 4-OH-tamoxifen in medium 0 µM): 0.951
- drug sensitivity score (MCF-7 [7]; 4-OH-tamoxifen in medium 1 µM): 0.135
- drug sensitivity score (ZR-75-1 Tam2 [8]): 0.671
- drug sensitivity score (BT-474 Tam1 [9]): 3.57
- drug sensitivity score (ZR-75-1 [10]; 4-OH-tamoxifen in medium 0 µM): 0.724
- drug sensitivity score (ZR-75-1 [10]; 4-OH-tamoxifen in medium 1 µM): 0.0431
- relative IC50 (BT-474 [11]; 4-OH-tamoxifen in medium 0 µM): > 10 µM
- relative IC50 (BT-474 [11]; 4-OH-tamoxifen in medium 1 µM): 1.59 µM
- relative IC50 (T-47D Tam1 [14]): > 10 µM
- relative IC50 (BT-474 Tam1 [20]): 3.66 µM
